These results are taken from patent US20230279016A1, “Tetrahydropyrazolopyrimidines and Related Analogs for Inhibiting YAP/TAZ-TEAD” (THE KATHOLIEKE UNIVERSITEIT LEUVEN, priority 2021, published 2023).

As usually defined, the EC50 is the concentration giving half of the maximal effect.

Common to all, as to type: cell-based
In experiment [1] the test system is NCI-H226 mesothelioma cell line. As to the kind of experiment: Mesothelioma cell line proliferation assay, NCI-H226. As to conditions: NCI-H226, 6 days with compound, cell viability by ATPlite. The protocol: (§1) Mesothelioma cell lines, NCI-H226 and NCI-H2052 (all sourced from the ATCC cell culture collection) are plated in 96-well plates (Corning® 96 Well White Polystyrene Microplate clear flat bottom, white polystyrene (TC-Treated)), at 1500 cells/well in full medium (RPMI 1640 ATCC modification with L-glutamine, HEPES, Phenol Red, Sodium Pyruvate, High glucose, Low sodium bicarbonate and 10% fetal bovine serum). Cells are incubated overnight at 37° C. in an incubator with 5% CO2. Then compounds, dissolved in DMSO, are added in dose-response. Cells are incubated with compound dilutions for another 6 days at 37° C. in an incubator with 5% CO2. Cell viability is quantitated using the ATPlite kit (Perkin-Elmer) and the luminescence is read-out using an Envision instrument (Perkin-Elmer). The amount of relative light units produced using the ATPlite kit is used to calculated percent of inhibition.
(§2) The activities of example compounds tested are depicted in the table below. The activity ranges A, B and C refer to EC50 values in the mesothelioma cell line proliferation assay as described as follows: “A”: EC50 <1 μM; “B” : 1 μM EC50 ≤10 μM and “C” : EC50 >10 μM. NT: not tested.
In general terms: Cellular ATP, detected with luciferase, serves as a proxy for viable cell number.

Experiment [2] concerns NCI-H2052 mesothelioma cell line. Description: Mesothelioma cell line proliferation assay, NCI-H2052. As to conditions: NCI-H2052, 6 days with compound, cell viability by ATPlite. The protocol: as §1, §2
The test system of experiment [3] is YAP/TAZ-TEAD transcription. As to the kind of experiment: Reporter gene assay for measuring the inhibition of YAP/TAZ-TEAD transcription (TEAD-responsive element luciferase reporter in Hek293T cells). As to conditions: Hek293T cells transiently transfected with TEAD-responsive element luciferase reporter, 24 hours incubation. The essentials: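 Hek293T cells transiently transfected with TEAD-responsive luciferase reporter, exposed to compound for 24 h at 37° C/5% CO2, then read by luminescence. Percent inhibition normalized to vehicle (0%) and positive control inhibitor (100%); EC50 reported as activity ranges.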
Background: Reporter assays use an easily measured gene product as a stand-in for the process of interest.

With `C=CC(=O)NCC1CN(c2ccc(C(F)(F)F)cc2F)c2ccnn2C1` (single isomer, unassigned) [Cpd. No. 016-En1, (R)- or (S)-N-((4-(2-fluoro-4-(trifluoromethyl)phenyl)-4,5,6,7-tetrahydropyrazolo[1,5-a]pyrimidin-6-yl)methyl)acrylamide], the EC50 in experiment [1], in experiment [2] and in experiment [3] was below 1000 nM in each case.
On to `C=CC(=O)NCC1CN(Cc2cccc(C(F)(F)F)c2)c2ccnn2C1` (stereo not drawn) [Cpd. No. 052, N-((4-(3-(trifluoro-methyl)benzyl)-4,5,6,7-tetrahydropyrazolo[1,5-a]pyrimidin-6-yl)methyl)acrylamide], for which the EC50 in experiment [1] (Homo sapiens, NCI-H226, 144 h) was below 1000 nM; in experiment [2] (Homo sapiens, NCI-H2052, 144 h), below 1000 nM; in experiment [3] (Homo sapiens, HEK-293T, 24 h), below 1000 nM.
Consider `C=CC(=O)NCC1Cc2c(cnn2C(F)F)N(c2ccc(C(F)(F)F)cc2)C1` (single isomer, unassigned) [Cpd. No. 084-En1, (R)- or (S)-N-((1-(difluoromethyl)-4-(4-(trifluoromethyl)phenyl)-4,5,6,7-tetrahydro-1H-pyrazolo[4,3-b]pyridin-6-yl)methyl)acrylamide], for which the EC50 in experiment [1] (Homo sapiens, NCI-H226, 144 h) is below 1000 nM; in experiment [2] (Homo sapiens, NCI-H2052, 144 h), below 1000 nM; in experiment [3] (Homo sapiens, HEK-293T, 24 h), below 1000 nM.
Consider `C=CC(=O)NCC1CN(c2ccc(C(C)C)cc2)c2ccnn2C1` (single isomer, unassigned) [Cpd. No. 013-En1, (R)- or (S)-N-((4-(4-isopropylphenyl)-4,5,6,7-tetrahydropyrazolo[1,5-a]pyrimidin-6-yl)methyl)acrylamide], for which the EC50 in experiment [1], in experiment [2] and in experiment [3] was below 1000 nM in each case.
Consider `FC(F)(F)c1ccc(N2CC(C3CC(Br)=NO3)Cn3nccc32)cc1` (single isomer, unassigned) [Cpd. No. 086-Dia2, 3-bromo-5-(4-(4-(trifluoromethyl)phenyl)-4,5,6,7-tetrahydropyrazolo[1,5-a]pyrimidin-6-yl)-4,5-dihydroisoxazole], for which the concentration for a half-maximal effect (EC50) in experiment [1], in experiment [2] and in experiment [3] was below 1000 nM each time.
With `C=CC(=O)NC1CN(c2ccc(C(F)(F)F)cc2F)c2ccnn2C1` (single isomer, unassigned) [Cpd. No. 065-En1, (R)- or (S)-N-(4-(2-fluoro-4-(trifluoromethyl)phenyl)-4,5,6,7-tetrahydropyrazolo[1,5-a]pyrimidin-6-yl)acrylamide], the EC50 is below 1000 nM in experiment [1] (Homo sapiens, NCI-H226, 144 h); below 1000 nM in experiment [2] (Homo sapiens, NCI-H2052, 144 h); below 1000 nM in experiment [3] (Homo sapiens, HEK-293T, 24 h).
As to `C=CC(=O)NCC1CN(c2ccc(S(F)(F)(F)(F)F)cc2)c2ccnn2C1` (single isomer, unassigned) [Cpd. No. 023-En2, (R)- or (S)-N-((4-(4-(pentafluoro-l6-sulfaneyl)phenyl)-4,5,6,7-tetrahydropyrazolo[1,5-a]pyrimidin-6-yl)methyl)acrylamide], the EC50 in experiment [1], in experiment [2] and in experiment [3] was below 1000 nM in each case.
`CS(=O)(=O)NCC1CN(c2ccc(C(F)(F)F)cc2)c2ccnn2C1` (stereo not drawn) [Cpd. No. 027, N-((4-(4-(trifluoromethyl)phenyl)-4,5,6,7-tetrahydropyrazolo[1,5-a]pyrimidin-6-yl)methyl)methanesulfonamide]: the EC50 in experiment [1] (Homo sapiens, NCI-H226, 144 h) was above 10000 nM; in experiment [2] (Homo sapiens, NCI-H2052, 144 h) it was above 10000 nM; in experiment [3] (Homo sapiens, HEK-293T, 24 h), above 20000 nM.
As for `C=CC(=O)NCC1Cc2nn(C)cc2N(c2ccc(C(F)(F)F)cc2)C1` (stereo not drawn) [Cpd. No. 069, N-((2-methyl-4-(4-(trifluoromethyl)phenyl)-4,5,6,7-tetrahydro-2H-pyrazolo[4,3-b]pyridin-6-yl)methyl)acrylamide], the EC50 in experiment [1] (Homo sapiens, NCI-H226, 144 h) is below 1000 nM; in experiment [2] (Homo sapiens, NCI-H2052, 144 h), below 1000 nM; in experiment [3] (Homo sapiens, HEK-293T, 24 h), below 1000 nM.
For `C#CC(=O)NCC1CN(c2ccc(C(F)(F)F)cc2)c2ccnn2C1` (stereo not drawn) [Cpd. No. 038, N-((4-(4-(trifluoromethyl)phenyl)-4,5,6,7-tetrahydropyrazolo[1,5-a]pyrimidin-6-yl)methyl)propiolamide], the EC50 in experiment [1] (Homo sapiens, NCI-H226, 144 h) was 1000 to 10000 nM; in experiment [2] (Homo sapiens, NCI-H2052, 144 h), below 1000 nM; in experiment [3] (Homo sapiens, HEK-293T, 24 h), below 1000 nM.
Regarding `C=CC(=O)NCC1CN(c2ccc(C(C)(C)C)cc2)c2ccnn2C1` (single isomer, unassigned) [Cpd. No. 014-En1, (R)- or (S)-N-((4-(4-(tert-butyl)phenyl)-4,5,6,7-tetrahydropyrazolo[1,5-a]pyrimidin-6-yl)methyl)acrylamide], the EC50 in experiment [1] (Homo sapiens, NCI-H226, 144 h) is below 1000 nM; in experiment [2] (Homo sapiens, NCI-H2052, 144 h) it was below 1000 nM; in experiment [3] (Homo sapiens, HEK-293T, 24 h), below 1000 nM.
Take `C=CC(=O)NCC1CN(c2ccc(C(F)(F)F)cc2)c2cc(C3CC3)nn2C1` (stereo not drawn) [Cpd. No. 031, N-((2-cyclopropyl-4-(4-(trifluoromethyl)phenyl)-4,5,6,7-tetrahydropyrazolo[1,5-a]pyrimidin-6-yl)methyl)acrylamide]: the EC50 in experiment [1] (Homo sapiens, NCI-H226, 144 h) is below 1000 nM; in experiment [2] (Homo sapiens, NCI-H2052, 144 h) it was below 1000 nM; in experiment [3] (Homo sapiens, HEK-293T, 24 h), below 1000 nM.
On to `C=CC(=O)NCC1CN(c2ccc(OC(F)(F)F)cc2)c2ccnn2C1` (single isomer, unassigned) [Cpd. No. 011-En2, (R)- or (S)-N-((4-(4-(trifluoromethoxy)phenyl)-4,5,6,7-tetrahydropyrazolo[1,5-a]pyrimidin-6-yl)methyl)acrylamide], for which the EC50 in experiment [1] was below 1000 nM; in experiment [2], above 10000 nM; in experiment [3] it was below 1000 nM.
Take `C=CC(=O)NCC1CN(c2ccc(C(F)(F)F)cc2)c2cc(C(F)(F)F)nn2C1` (stereo not drawn) [Cpd. No. 034, N-((2-(trifluoromethyl)-4-(4-(trifluoromethyl)phenyl)-4,5,6,7-tetrahydropyrazolo[1,5-a]pyrimidin-6-yl)methyl)acrylamide]: the EC50 was below 1000 nM in experiment [1] (Homo sapiens, NCI-H226, 144 h); below 1000 nM in experiment [2] (Homo sapiens, NCI-H2052, 144 h); below 1000 nM in experiment [3] (Homo sapiens, HEK-293T, 24 h).
In the case of `C=CC(=O)NCC1CN(c2ccc(OC(F)F)cc2)c2ccnn2C1` (single isomer, unassigned) [Cpd. No. 012-En1, (R)- or (S)-N-((4-(4-(difluoromethoxy)phenyl)-4,5,6,7-tetrahydropyrazolo[1,5-a]pyrimidin-6-yl)methyl)acrylamide], the EC50 in experiment [1], in experiment [2] and in experiment [3] was below 1000 nM throughout.
Take `C=CC(=O)NCC1Cc2c(cnn2C)N(c2ccc(OC(F)(F)F)cc2)C1` (stereo not drawn) [Cpd. No. 070, N-((1-methyl-4-(4-(trifluoromethoxy)phenyl)-4,5,6,7-tetrahydro-1H-pyrazolo[4,3-b]pyridin-6-yl)methyl)acrylamide]: the EC50 in experiment [1] (Homo sapiens, NCI-H226, 144 h) is below 1000 nM; in experiment [2] (Homo sapiens, NCI-H2052, 144 h) it was below 1000 nM; in experiment [3] (Homo sapiens, HEK-293T, 24 h), below 1000 nM.
On to `C=CC(=O)NC[C@@H]1CN(Cc2ccccc2)c2ccnn2C1` (single isomer, unassigned) [Cpd. No. 049-En1, (R)- or (S)-((4-benzyl-4,5,6,7-tetrahydropyrazolo[1,5-a]pyrimidin-6-yl)methyl)acrylamide], for which the results for the EC50 in experiment [1], in experiment [2] and in experiment [3] were 1000 to 10000 nM, 1000 to 10000 nM and above 20000 nM, respectively.
Turning to `C=CC(=O)NCC1CN(c2ccc(C(F)(F)F)cc2)c2ccnn2C1` (stereo not drawn) [Cpd. No. 002, N-((4-(4-(trifluoromethyl)phenyl)-4,5,6,7-tetrahydropyrazolo[1,5-a]pyrimidin-6-yl)methyl)acrylamide], the EC50 in experiment [1] (Homo sapiens, NCI-H226, 144 h) was below 1000 nM; in experiment [2] (Homo sapiens, NCI-H2052, 144 h), below 1000 nM; in experiment [3] (Homo sapiens, HEK-293T, 24 h) it was below 1000 nM.
On to `C=CC(=O)NCC1Cc2nn(C(F)F)cc2N(c2ccc(C(F)(F)F)cc2)C1` (single isomer, unassigned) [Cpd. No. 085-En2, (R)- or (S)-N-((2-(difluoromethyl)-4-(4-(trifluoromethyl)phenyl)-4,5,6,7-tetrahydro-2H-pyrazolo[4,3-b]pyridin-6-yl)methyl)acrylamide], for which the EC50 is below 1000 nM in experiment [1] (Homo sapiens, NCI-H226, 144 h); below 1000 nM in experiment [2] (Homo sapiens, NCI-H2052, 144 h); below 1000 nM in experiment [3] (Homo sapiens, HEK-293T, 24 h).
For `C=CC(=O)NC[C@H]1Cc2nn(C(F)F)cc2N(c2ccc(C(F)(F)F)cc2)C1` (single isomer, unassigned) [Cpd. No. 085-En1, (R)- or (S)-N-(2-(difluoromethyl)-4-(4-(trifluoromethyl)phenyl)-4,5,6,7-tetrahydro-2H-pyrazolo[4,3-b]pyridin-6-yl)methyl)acrylamide], the EC50 in experiment [1], in experiment [2] and in experiment [3] was below 1000 nM throughout.
As to `C=CC(=O)NCC1CN(c2ccc(OC(F)(F)F)cc2F)c2ccnn2C1` (single isomer, unassigned) [Cpd. No. 019-En2, (R)- or (S)-N-((4-(2-fluoro-4-(trifluoromethoxy)phenyl)-4,5,6,7-tetrahydropyrazolo[1,5-a]pyrimidin-6-yl)methyl)acrylamide], the EC50 in experiment [1] is below 1000 nM; in experiment [2] it was above 10000 nM; in experiment [3], below 1000 nM.
